Data published in patent publication USRE48335E1, “Polymyxin derivatives as antimicrobial compounds” (priority 2014, dated 2020).
Converted amounts (≈) assume the structure as drawn. Where two headings read alike, the source gives them in different places. Positions of bridges follow the written chain, without caps; N, C: chain ends. Non-standard residues stand in square brackets, D forms with d. Residues, ends and D or L forms follow the SMILES beside them. *: point of attachment. Benzoyl(4-Ph) = O=C(c1ccc(-c2ccccc2)cc1)*; Hydrocinnamoyl = O=C(CCc1ccccc1)*; X37 = O=C(c1ccc(C(F)(F)F)cc1F)*; Octanoyl = CCCCCCCC(=O)*; Orn = NCCC[C@H](N)C(=O)O; Dab = NCC[C@H](N)C(=O)O; Abu = CC[C@H](N)C(=O)O; Dap = NC[C@H](N)C(=O)O; Hexanoyl = CCCCCC(=O)*; PhAc = O=C(Cc1ccccc1)*; X40 = O=C(c1ccccc1F)*

Experiments:
Pseudomonas aeruginosa = system: Pseudomonas aeruginosa
Outline: (§1)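 Using polymyxin B sulphate as comparator control, the trifluoroacetate-salt lipopeptides were assayed in CAMHB by broth microdilution to CLSI M100-S18, and MICs recorded.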

Acinetobacter baumannii = system: Acinetobacter baumannii
Outline: as §1

Enterobacter cloacae = system: Enterobacter cloacae
Outline: as §1

SMILES | Minimum inhibitory concentration, Pa ATCC 27853 (Pseudomonas aeruginosa) [mg/L] | Minimum inhibitory concentration, Pa FADDI-PA022 (Pseudomonas aeruginosa) [mg/L] | Minimum inhibitory concentration, Pa FADDI-PA025 (Pseudomonas aeruginosa) [mg/L] | Minimum inhibitory concentration, Ab A ATCC 17978 (Acinetobacter baumannii) [mg/L] | Minimum inhibitory concentration, Ab ATCC 19606 (Acinetobacter baumannii) [mg/L] | Minimum inhibitory concentration, Ab FADDI-AB034 (Acinetobacter baumannii) [mg/L] | Minimum inhibitory concentration, Ec FADDI-EC001 (Enterobacter cloacae) [mg/L] | Minimum inhibitory concentration, Ec FADDI-EC003 (Enterobacter cloacae) [mg/L] | Minimum inhibitory concentration, Ec FADDI-EC006 (Enterobacter cloacae) [mg/L] | further results
CC(C)C[C@H]1NC(=O)[C@H](CCN)NC(=O)[C@@H](NC(=O)[C@@H](CO)NC(=O)[C@@H](NC(=O)[C@H](CCN)NC(=O)c2ccc(-c3ccccc3)cc2)[C@@H](C)O)CCNC(=O)[C@H]([C@@H](C)O)NC(=O)[C@H](CCN)NC(=O)[C@H](CCN)NC(=O)[C@H]([C@@H](C)O)NC1=O [Compound 11] ({Benzoyl(4-Ph)}-[Dab]T[dS][Dab][Dab][dL]T[Dab][Dab]T; lactam 4-C) | 4 (≈ 3.38 µM) | 4 (≈ 3.38 µM) | 32 (≈ 27 µM) | 0.5 (≈ 0.422 µM) | 2 (≈ 1.69 µM) | 1 (≈ 0.844 µM) | 0.5 (≈ 0.422 µM) | 0.5 (≈ 0.422 µM) | 0.5 (≈ 0.422 µM) | –
CCCCCCCC(=O)N[C@@H](CN)C(=O)N[C@H](C(=O)N[C@H](CO)C(=O)N[C@H]1CCNC(=O)[C@H]([C@@H](C)O)NC(=O)[C@H](CCN)NC(=O)[C@H](CCN)NC(=O)[C@H]([C@@H](C)O)NC(=O)[C@@H](CC(C)C)NC(=O)[C@H](CCN)NC1=O)[C@@H](C)O [Compound 13] (Octanoyl-[Dap]T[dS][Dab][Dab][dL]T[Dab][Dab]T; lactam 4-C) | 4 (≈ 3.58 µM) | 4 (≈ 3.58 µM) | >32 | 1 (≈ 0.896 µM) | 1 (≈ 0.896 µM) | 0.5 (≈ 0.448 µM) | 0.25 (≈ 0.224 µM) | 0.25 (≈ 0.224 µM) | 0.5 (≈ 0.448 µM) | –
CC[C@@H]1NC(=O)[C@@H](CC(C)C)NC(=O)[C@H](CCN)NC(=O)[C@@H](NC(=O)[C@H](CN)NC(=O)[C@@H](NC(=O)[C@H](CCN)NC(=O)c2ccccc2F)[C@@H](C)O)CCNC(=O)[C@H]([C@@H](C)O)NC(=O)[C@H](CCN)NC(=O)[C@H](CCN)NC1=O [Compound 73] (X40-[Dab]T[Dap][Dab][Dab][dL][Abu][Dab][Dab]T; lactam 4-C) | 0.5 (≈ 0.451 µM) | 1 (≈ 0.901 µM) | 4 (≈ 3.61 µM) | 4 (≈ 3.61 µM) | 8 (≈ 7.21 µM) | 4 (≈ 3.61 µM) | 0.25 (≈ 0.225 µM) | 0.25 (≈ 0.225 µM) | 1 (≈ 0.901 µM) | –
CCCCCC(=O)N[C@@H](CCN)C(=O)N[C@H](C(=O)N[C@@H](CN)C(=O)N[C@H]1CCNC(=O)[C@H]([C@@H](C)O)NC(=O)[C@H](CCN)NC(=O)[C@H](CCN)NC(=O)[C@H](C)NC(=O)[C@@H](CC(C)C)NC(=O)[C@H](CCN)NC1=O)[C@@H](C)O [Compound 67] (Hexanoyl-[Dab]T[Dap][Dab][Dab][dL]A[Dab][Dab]T; lactam 4-C) | 0.5 (≈ 0.467 µM) | 0.5 (≈ 0.467 µM) | 2 (≈ 1.87 µM) | 2 (≈ 1.87 µM) | 4 (≈ 3.73 µM) | 4 (≈ 3.73 µM) | <0.125 | 0.25 (≈ 0.233 µM) | 0.5 (≈ 0.467 µM) | –
CCCCCCCC(=O)N[C@@H](CCCN)C(=O)N[C@H](C(=O)N[C@@H](CCN)C(=O)N[C@H]1CCNC(=O)[C@H]([C@@H](C)O)NC(=O)[C@H](CCN)NC(=O)[C@H](CCN)NC(=O)[C@H]([C@@H](C)O)NC(=O)[C@@H](CC(C)C)NC(=O)[C@H](CCN)NC1=O)[C@@H](C)O [Compound 32] (Octanoyl-[Orn]T[Dab][Dab][Dab][dL]T[Dab][Dab]T; lactam 4-C) | >32 | 1 (≈ 0.864 µM) | >32 | >32 | >32 | >32 | 1 (≈ 0.864 µM) | 1 (≈ 0.864 µM) | >32 | –
CCCCCCCC(=O)N[C@@H](CCN)C(=O)N[C@H](C(=O)N[C@@H](CN)C(=O)N[C@H]1CCNC(=O)[C@H]([C@@H](C)O)NC(=O)[C@H](CN)NC(=O)[C@H](CCN)NC(=O)[C@H]([C@@H](C)O)NC(=O)[C@@H](CC(C)C)NC(=O)[C@H](CCN)NC1=O)[C@@H](C)O [Compound 50] (Octanoyl-[Dab]T[Dap][Dab][Dab][dL]T[Dab][Dap]T; lactam 4-C) | 1 (≈ 0.897 µM) | 0.5 (≈ 0.448 µM) | >32 | 0.5 (≈ 0.448 µM) | 0.5 (≈ 0.448 µM) | 1 (≈ 0.897 µM) | <0.125 | <0.125 | <0.125 | –
CC(C)C[C@H]1NC(=O)[C@H](CCN)NC(=O)[C@@H](NC(=O)[C@@H](CO)NC(=O)[C@@H](NC(=O)[C@H](CCN)NC(=O)Cc2ccccc2)[C@@H](C)O)CCNC(=O)[C@H]([C@@H](C)O)NC(=O)[C@H](CCN)NC(=O)[C@H](CCN)NC(=O)[C@H]([C@@H](C)O)NC1=O [Compound 12] (PhAc-[Dab]T[dS][Dab][Dab][dL]T[Dab][Dab]T; lactam 4-C) | – | – | – | – | – | – | – | – | – | Minimum inhibitory concentration, Pa ATCC 27853 (Pseudomonas aeruginosa; Pseudomonas aeruginosa ATCC 27853, broth microdilution in CAMHB): >32 mg/L; Minimum inhibitory concentration, Pa FADDI-PA022 (Pseudomonas aeruginosa; Pseudomonas aeruginosa FADDI-PA022, broth microdilution in CAMHB): 8 mg/L (≈ 7.13 µM); Minimum inhibitory concentration, Pa FADDI-PA025 (Pseudomonas aeruginosa; Pseudomonas aeruginosa FADDI-PA025, broth microdilution in CAMHB): >32 mg/L; Minimum inhibitory concentration, Ab A ATCC 17978 (Acinetobacter baumannii; Acinetobacter baumannii ATCC 17978, broth microdilution in CAMHB): 4 mg/L (≈ 3.56 µM); Minimum inhibitory concentration, Ab ATCC 19606 (Acinetobacter baumannii; Acinetobacter baumannii ATCC 19606, broth microdilution in CAMHB): 4 mg/L (≈ 3.56 µM); Minimum inhibitory concentration, Ab FADDI-AB034 (Acinetobacter baumannii; Acinetobacter baumannii FADDI-AB034, broth microdilution in CAMHB): 4 mg/L (≈ 3.56 µM); Minimum inhibitory concentration, Ec FADDI-EC001 (Enterobacter cloacae; Enterobacter cloacae FADDI-EC001, broth microdilution in CAMHB): 0.25 mg/L (≈ 0.223 µM); Minimum inhibitory concentration, Ec FADDI-EC003 (Enterobacter cloacae; Enterobacter cloacae FADDI-EC003, broth microdilution in CAMHB): 0.5 mg/L (≈ 0.446 µM); Minimum inhibitory concentration, Ec FADDI-EC006 (Enterobacter cloacae; Enterobacter cloacae FADDI-EC006, broth microdilution in CAMHB): 1 mg/L (≈ 0.891 µM)
CC[C@@H]1NC(=O)[C@@H](CC(C)C)NC(=O)[C@H](CCN)NC(=O)[C@@H](NC(=O)[C@H](CN)NC(=O)[C@@H](NC(=O)[C@H](CCN)NC(=O)c2ccc(C(F)(F)F)cc2F)[C@@H](C)O)CCNC(=O)[C@H]([C@@H](C)O)NC(=O)[C@H](CCN)NC(=O)[C@H](CCN)NC1=O [Compound 137] (X37-[Dab]T[Dap][Dab][Dab][dL][Abu][Dab][Dab]T; lactam 4-C) | – | – | – | – | – | – | – | – | – | Minimum inhibitory concentration (MIC), Pa ATCC 27853 (Pseudomonas aeruginosa): 0.5 mg/L (≈ 0.425 µM); Minimum inhibitory concentration (MIC), Pa FADDI-PA022 (Pseudomonas aeruginosa): 1 mg/L (≈ 0.849 µM); Minimum inhibitory concentration (MIC), Pa FADDI-PA025 (Pseudomonas aeruginosa): 4 mg/L (≈ 3.4 µM); Minimum inhibitory concentration (MIC), Ab ATCC 17978 (Acinetobacter baumannii): 0.25 mg/L (≈ 0.212 µM); Minimum inhibitory concentration (MIC), Ab ATCC 19606 (Acinetobacter baumannii): 0.5 mg/L (≈ 0.425 µM); Minimum inhibitory concentration (MIC), Ab FADDI-AB034 (Acinetobacter baumannii): 0.25 mg/L (≈ 0.212 µM); Minimum inhibitory concentration (MIC), Ec FADDI-EC001 (Enterobacter cloacae): <0.125 mg/L; Minimum inhibitory concentration (MIC), Ec FADDI-EC003 (Enterobacter cloacae): <0.125 mg/L; Minimum inhibitory concentration (MIC), Ec FADDI-EC006 (Enterobacter cloacae): <0.125 mg/L
CC[C@@H]1NC(=O)[C@@H](CC(C)C)NC(=O)[C@H](CCN)NC(=O)[C@@H](NC(=O)[C@H](CN)NC(=O)[C@@H](NC(=O)[C@H](CCN)NC(=O)CCc2ccccc2)[C@@H](C)O)CCNC(=O)[C@H]([C@@H](C)O)NC(=O)[C@H](CCN)NC(=O)[C@H](CCN)NC1=O [Compound 145] (Hydrocinnamoyl-[Dab]T[Dap][Dab][Dab][dL][Abu][Dab][Dab]T; lactam 4-C) | – | – | – | – | – | – | – | – | – | Minimum inhibitory concentration (MIC), Pa ATCC 27853 (Pseudomonas aeruginosa; Pseudomonas aeruginosa ATCC 27853, broth microdilution in CAMHB, TFA salt): 0.5 mg/L; Minimum inhibitory concentration (MIC), Pa FADDI-PA022 (Pseudomonas aeruginosa; Pseudomonas aeruginosa FADDI-PA022, broth microdilution in CAMHB, TFA salt): 0.5 mg/L; Minimum inhibitory concentration (MIC), Pa FADDI-PA025 (Pseudomonas aeruginosa; Pseudomonas aeruginosa FADDI-PA025, broth microdilution in CAMHB, TFA salt): 1 mg/L; Minimum inhibitory concentration (MIC), Ab ATCC 17978 (Acinetobacter baumannii; Acinetobacter baumannii ATCC 17978, broth microdilution in CAMHB, TFA salt): 0.5 mg/L; Minimum inhibitory concentration (MIC), Ab ATCC 19606 (Acinetobacter baumannii; Acinetobacter baumannii ATCC 19606, broth microdilution in CAMHB, TFA salt): 1 mg/L; Minimum inhibitory concentration (MIC), Ab FADDI-AB034 (Acinetobacter baumannii; Acinetobacter baumannii FADDI-AB034, broth microdilution in CAMHB, TFA salt): 0.5 mg/L; Minimum inhibitory concentration (MIC), Ec FADDI-EC001 (Enterobacter cloacae; Enterobacter cloacae FADDI-EC001, broth microdilution in CAMHB, TFA salt): 0.5 mg/L; Minimum inhibitory concentration (MIC), Ec FADDI-EC003 (Enterobacter cloacae; Enterobacter cloacae FADDI-EC003, broth microdilution in CAMHB, TFA salt): <0.125 mg/L; Minimum inhibitory concentration (MIC), Ec FADDI-EC006 (Enterobacter cloacae; Enterobacter cloacae FADDI-EC006, broth microdilution in CAMHB, TFA salt): <0.125 mg/L
CCCCCCCC(=O)N[C@@H](CCN)C(=O)N[C@H](C(=O)N[C@@H](CCN)C(=O)N[C@H]1CCCNC(=O)[C@H]([C@@H](C)O)NC(=O)[C@H](CCN)NC(=O)[C@H](CCN)NC(=O)[C@H]([C@@H](C)O)NC(=O)[C@@H](CC(C)C)NC(=O)[C@H](CCN)NC1=O)[C@@H](C)O [Compound 149] (Octanoyl-[Dab]T[Dab][Orn][Dab][dL]T[Dab][Dab]T; lactam 4-C) | – | – | – | – | – | – | – | – | – | Minimum inhibitory concentration (MIC), Pa ATCC 27853 (Pseudomonas aeruginosa): >32 mg/L; Minimum inhibitory concentration (MIC), Pa FADDI-PA022 (Pseudomonas aeruginosa): >32 mg/L; Minimum inhibitory concentration (MIC), Pa FADDI-PA025 (Pseudomonas aeruginosa): >32 mg/L; Minimum inhibitory concentration (MIC), Ab ATCC 17978 (Acinetobacter baumannii): >32 mg/L; Minimum inhibitory concentration (MIC), Ab ATCC 19606 (Acinetobacter baumannii): >32 mg/L; Minimum inhibitory concentration (MIC), Ab FADDI-AB034 (Acinetobacter baumannii): >32 mg/L; Minimum inhibitory concentration (MIC), Ec FADDI-EC001 (Enterobacter cloacae): >32 mg/L; Minimum inhibitory concentration (MIC), Ec FADDI-EC003 (Enterobacter cloacae): >32 mg/L; Minimum inhibitory concentration (MIC), Ec FADDI-EC006 (Enterobacter cloacae): >32 mg/L
